Tested on: patients with uncontrolled gout
Test: Adverse events of special interest: gout flares during the Methotrexate Run-in Period
Assay type: in vivo, human
Details: for Number of Gout Flares per Subject among subjects with at least one gout flare, Mean / Number of Gout Flares per Subject among subjects with at least one gout flare, Median / Gout Flares, % of subjects / Subjects with 1 gout flare, % / Subjects with 2 gout flares, %: Methotrexate Run-in Period
Excerpt: As used herein, a “gout flare” refers to a manifestation of physiological or biochemical symptoms of gout, which is a possible side effect or AE associated with treatment with KXX. A gout flare may produce burning itching, tingling, or stiffness in the joints, particularly the peripheral joints. An individual may also experience redness, swelling, and pain in the joints. In accordance with the disclosure, gout flares may initially increase when starting treatment with KXX. For such individuals, medications to help reduce flares may be taken regularly for the first few months after KXX is started. […] In some embodiments, gout flare prophylaxis may include, but is not limited to, In some embodiments, prophylactic treatment may be given prior to an infusion of KXX, for example one week prior to treatment with KXX.
Gout Flare Treatment—An increase in gout flares was frequently observed upon initiation of anti-hyperuricemic therapy, including treatment with pegloticase. Participants were instructed to contact the site within 12 hours of the onset of symptoms. Gout flares were confirmed through questioning or direct observation. All participants who experience a gout flare during the study were prescribed anti-inflammatory treatment (e.g., corticosteroids, NSAIDs, colchicine) as deemed clinically indicated by the study physician.

## CN(Cc1cnc2nc(N)nc(N)c2n1)c1ccc(C(=O)N[C@@H](CCC(=O)O)C(=O)O)cc1 [MTX, methotrexate]
Day 1, ITT
  Maximum Reported Intensity of Flare (0-10 scale), Max: 8
  Maximum Reported Intensity of Flare (0-10 scale), Mean: 5.8
  Maximum Reported Intensity of Flare (0-10 scale), Median: 5.5
  Maximum Reported Intensity of Flare (0-10 scale), Min: 4
Day 1, ITT, 14 assessed
  Any Gout Flares Since the Last Visit, %: (57.1) %
  Pain at rest >3 out of 10, %: (57.1) %
  Pain different than normal, %: (50.0) %
  Swelling in Joints, %: (42.9) %
Day 1, mITT
  Maximum Reported Intensity of Flare (0-10 scale), Max: 8
  Maximum Reported Intensity of Flare (0-10 scale), Mean: 5.8
  Maximum Reported Intensity of Flare (0-10 scale), Median: 5.5
  Maximum Reported Intensity of Flare (0-10 scale), Min: 4
Day 1, mITT, 14 assessed
  Any Gout Flares Since the Last Visit, %: (57.1) %
  Pain at rest >3 out of 10, %: (57.1) %
  Pain different than normal, %: (50.0) %
  Swelling in Joints, %: (42.9) %
ITT
  Number of Gout Flares per Subject among subjects with at least one gout flare, Mean: 1.2
  Number of Gout Flares per Subject among subjects with at least one gout flare, Median: 1.0
ITT N = 15
  Gout Flares, % of subjects: (33.3) %
  Subjects with 1 gout flare, %: (26.7) %
  Subjects with 2 gout flares, %: (6.7) %
mITT
  Number of Gout Flares per Subject among subjects with at least one gout flare, Mean: 1.2
  Number of Gout Flares per Subject among subjects with at least one gout flare, Median: 1.0
mITT N = 14
  Gout Flares, % of subjects: (35.7) %
  Subjects with 1 gout flare, %: (28.6) %
  Subjects with 2 gout flares, %: (7.1) %
Week −4, ITT
  Maximum Reported Intensity of Flare (0-10 scale), Max: 10
  Maximum Reported Intensity of Flare (0-10 scale), Mean: 8.5
  Maximum Reported Intensity of Flare (0-10 scale), Median: 8.0
  Maximum Reported Intensity of Flare (0-10 scale), Min: 7
Week −4, ITT, 14 assessed
  Any Gout Flares Since the Last Visit, %: (57.1) %
  Pain at rest >3 out of 10, %: (50.0) %
  Pain different than normal, %: (42.9) %
  Swelling in Joints, %: (50.0) %
Week −4, mITT
  Maximum Reported Intensity of Flare (0-10 scale), Max: 10
  Maximum Reported Intensity of Flare (0-10 scale), Mean: 8.2
  Maximum Reported Intensity of Flare (0-10 scale), Median: 8.0
  Maximum Reported Intensity of Flare (0-10 scale), Min: 7
Week −4, mITT, 13 assessed
  Any Gout Flares Since the Last Visit, %: (53.8) %
  Pain at rest >3 out of 10, %: (46.2) %
  Pain different than normal, %: (38.5) %
  Swelling in Joints, %: (46.2) %

Source: US20220323445A1, “REDUCING IMMUNOGENICITY TO PEGLOTICASE” (Horizon Therapeutics Ireland DAC, priority 2020, published 2022)
